For assay [1], the system named is NCI-H64 (Small Cell Lung Carcinoma). Kind of assay: Bliss excess, mean over the matrix (fraction); higher = more synergy. The method, boiled down: (§1)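 Cell lines grown in DMEM/F12 or RPMI with 10% FBS were plated in 1536-well plates and held 24 hours at 37°C, 5% CO2 before 72 hours of exposure to two-drug dose matrices, with DMSO typically at 0.2%. CellTiter-Glo 2.0 luminescence gave viability, which was converted to inhibition. Vehicle wells were set to 0 and blank wells to 1. Combination Emax is the second-highest inhibition in the matrix, and Bliss excess is the observed combination effect minus the expected EA + EB − EA·EB, where EA and EB are the single-agent effects.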

For a further assay, the system named is NCI-H2591 (Mesothelioma). The assay is described as above. In short, it runs like this: as §1

Structures are written as SMILES.

On to `CS(=O)(=O)CCNCc1ccc(-c2ccc3ncnc(Nc4ccc(OCc5cccc(F)c5)c(Cl)c4)c3c2)o1` [Lapatinib] + NC1(c2ccc(-c3nc4ccn5c(=O)[nH]nc5c4cc3-c3ccccc3)cc2)CCC1 [MK-2206] (first compound max 10 µM, 7x7, partner max 10 µM), for which the Bliss excess is 0.022 in assay [1] and -0.0408 in the assay with NCI-H2591 (Mesothelioma).
